Laboratory results from ChEMBL document CHEMBL1799992, “Substituent effect on the preferred DNA binding mode and affinity of a homologous series of naphthalene diimides” (Bioorg Med Chem Lett, 2011).

How the values were obtained:
Nucleic Acid [1] = experiment: Binding affinity to 20 mer AT-rich DNA in MES00 buffer at pH 6.3 by isothermal titration calorimetry; type: nucleic-acid assay
Nucleic Acid [2] = experiment: Binding affinity to calf thymus DNA assessed as high affinity binding constant in MES00 buffer at pH 6.3 by isothermal titration calorimetry; type: nucleic-acid assay; details: Bos taurus
Nucleic Acid [3] = experiment: Binding affinity to calf thymus DNA assessed as low affinity binding constant in MES00 buffer at pH 6.3 by isothermal titration calorimetry; type: nucleic-acid assay; details: Bos taurus
Nucleic Acid [4] = experiment: Selectivity ratio of binding constant K for AT-rich DNA to binding constant K for GC-rich DNA; type: nucleic-acid assay
[5] = target: T1, DNA topoisomerase 1 (Homo sapiens) (UniProt P11387); experiment: Inhibition of human topoisomerase 1 assessed as minimum concentration required for complete re-supercoiling of pUC19 DNA after 1 hr using ethidium bromide staining by agarose gel electrophoresis
T1 sequence (whole entry): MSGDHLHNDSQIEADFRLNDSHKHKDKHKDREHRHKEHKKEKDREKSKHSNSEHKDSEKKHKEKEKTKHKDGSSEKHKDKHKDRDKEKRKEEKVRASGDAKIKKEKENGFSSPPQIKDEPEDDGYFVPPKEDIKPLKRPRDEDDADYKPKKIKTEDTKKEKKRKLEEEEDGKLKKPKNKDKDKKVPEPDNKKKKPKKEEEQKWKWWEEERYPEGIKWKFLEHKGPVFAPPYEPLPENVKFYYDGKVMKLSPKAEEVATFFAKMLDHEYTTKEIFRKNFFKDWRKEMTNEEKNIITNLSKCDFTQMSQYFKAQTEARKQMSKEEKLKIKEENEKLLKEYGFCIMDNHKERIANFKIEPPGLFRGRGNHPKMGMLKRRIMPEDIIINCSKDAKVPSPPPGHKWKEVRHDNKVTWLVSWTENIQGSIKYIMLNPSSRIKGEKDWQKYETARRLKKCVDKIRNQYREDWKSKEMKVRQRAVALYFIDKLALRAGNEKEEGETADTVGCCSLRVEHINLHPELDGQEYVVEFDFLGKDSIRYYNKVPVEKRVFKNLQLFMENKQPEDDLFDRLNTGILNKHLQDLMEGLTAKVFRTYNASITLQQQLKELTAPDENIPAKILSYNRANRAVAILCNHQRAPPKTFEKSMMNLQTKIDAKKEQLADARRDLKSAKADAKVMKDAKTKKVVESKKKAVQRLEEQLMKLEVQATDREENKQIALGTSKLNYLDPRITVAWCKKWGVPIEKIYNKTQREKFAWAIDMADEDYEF

Nucleic Acid [6] = experiment: Binding affinity to 20 mer GC-rich DNA in MES00 buffer at pH 6.3 by isothermal titration calorimetry; type: nucleic-acid assay
Nucleic Acid [7] = experiment: Displacement of ethidium bromide from calf thymus DNA assessed as fluorescence intensity per microL of compound at 7 x 10^-5 M after 3 mins; type: nucleic-acid assay; details: Bos taurus
Nucleic Acid [8] = experiment: Binding affinity to calf thymus DNA assessed in MES00 buffer at pH 6.3 by isothermal titration calorimetry; type: nucleic-acid assay; details: Bos taurus

`CCC[N+](C)(CCC)CN1C(=O)c2ccc3c4c(ccc(c24)C1=O)C(=O)N(C[N+](C)(CCC)CCC)C3=O` was tested, and the K (Nucleic Acid [1]) was 0.73 ×10⁶ /M, the K (Nucleic Acid [2]) was 43 ×10⁶ /M and the K (Nucleic Acid [3]) was 3 ×10⁶ /M. The Ratio (Nucleic Acid [4]) was 3, the Activity [5] was 6.7 µM and the K (Nucleic Acid [6]) was 0.24 ×10⁶ /M.

`CC[N+](C)(CC)CN1C(=O)c2ccc3c4c(ccc(c24)C1=O)C(=O)N(C[N+](C)(CC)CC)C3=O` gave a K (Nucleic Acid [1]) of 0.85 ×10⁶ /M, a K (Nucleic Acid [2]) of 31 ×10⁶ /M and a K (Nucleic Acid [3]) of 3.6 ×10⁶ /M. It also gave a Ratio (Nucleic Acid [4]) of 2.3, an Activity [5] of 5.5 µM and a K (Nucleic Acid [6]) of 0.37 ×10⁶ /M.

With `CCCC[N+](C)(CCCC)CN1C(=O)c2ccc3c4c(ccc(c24)C1=O)C(=O)N(C[N+](C)(CCCC)CCCC)C3=O` the K (Nucleic Acid [1]) was 1.38 ×10⁶ /M, the K (Nucleic Acid [2]) was 78 ×10⁶ /M and the Flu intensity (Nucleic Acid [7]) was 358. The K (Nucleic Acid [3]) was 3.9 ×10⁶ /M, the Ratio (Nucleic Acid [4]) was 3.6 and the Activity [5] was > 6.7 µM. It also gave a K (Nucleic Acid [6]) of 0.38 ×10⁶ /M.

In the case of `C[N+](C)(C)CN1C(=O)c2ccc3c4c(ccc(c24)C1=O)C(=O)N(C[N+](C)(C)C)C3=O`, the K (Nucleic Acid [1]) is reported as 1.11 ×10⁶ /M, the Flu intensity (Nucleic Acid [7]) is reported as 400 and the K (Nucleic Acid [8]) is reported as 15 ×10⁶ /M. For the same compound, the Activity [5] was 3.5 µM and the K (Nucleic Acid [6]) was 1.17 ×10⁶ /M.
